Experimental data: patent publication US20130072404A1, “APPARATUS AND PROCESSES FOR GENERATING VARIABLE CONCENTRATION OF SOLUTES IN MICRODROPLETS” (UNIVERSITE DE STRASBOURG, priority 2009, published 2013)
pIC50: −log10 of the molar value.

Legend:
Format in all cases: biochemical
[1] = molecular target: T1, PTP1B (Homo sapiens, UniProt P18031); assay: Microplate dose-response assay, PTP1B
T1 construct: purchased EMD Biosciences, Inc
T1 sequence (P18031 1-435): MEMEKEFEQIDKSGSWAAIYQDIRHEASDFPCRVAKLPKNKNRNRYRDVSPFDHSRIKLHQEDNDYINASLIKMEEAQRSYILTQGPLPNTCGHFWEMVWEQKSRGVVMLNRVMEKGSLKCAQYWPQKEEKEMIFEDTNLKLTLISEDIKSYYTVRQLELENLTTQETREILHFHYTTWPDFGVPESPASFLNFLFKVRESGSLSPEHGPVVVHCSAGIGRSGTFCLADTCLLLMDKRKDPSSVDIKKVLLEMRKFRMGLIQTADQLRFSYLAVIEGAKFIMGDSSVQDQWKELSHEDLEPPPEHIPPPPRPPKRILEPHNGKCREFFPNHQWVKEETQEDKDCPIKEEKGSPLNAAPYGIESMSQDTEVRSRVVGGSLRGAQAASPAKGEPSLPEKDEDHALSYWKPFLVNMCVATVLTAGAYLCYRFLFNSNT
Description: For PTP1B, the same approach was used with the following alterations: the inhibitor was diluted in 50 mM HEPES pH 7.2; the solution of enzyme was 10 mg/l PTP1B (EMD Biosciences, Inc., California, USA) in 50 mM HEPES pH 7.2 containing 2 mM DTT, 2 mM EDTA, and 2 g/l BSA; and the solution of substrate was 68 μM FDP in 50 mM HEPES pH 7.2.

[2] = molecular target: T2, protein tyrosine phosphatase 1B (PTP1B) (Homo sapiens, UniProt P18031); assay: High-resolution dose-response screening of PTP1B with a chemical library in droplets, FDP substrate
T2 construct: purchased EMD Biosciences, Inc
T2 sequence (P18031 1-435): T1 sequence (P18031 1-435)
Description: High-resolution dose-response screening of PTP1B inhibition was performed in a similar manner to the screening of β-galactosidase inhibition (see above), but with the following changes: 50 mM HEPES pH 7.2 was used in place of PBS; the enzyme solution was 20 mg/l PTP1B in 50 mM HEPES pH 7.2 containing 4 mM DTT, 4 mM EDTA, and 4 g/l BSA; and the substrate solution was 68 μM FDP in 50 mM HEPES pH 7.2. In place of the 96-well plate were two 384-well plates containing 704 compounds comprising a subset of the Prestwick Chemical Library® (FIG. 21). These plates were prepared by diluting 1 μl aliquots of the compounds in pure DMSO to 10 μl of 240 μM concentration in 50 mM HEPES pH 7.2 by serial dilution. The compounds occupied columns 1 to 22 of each plate, while the wells in column 23 contained 10 μl of 240 μM sodium suramin (in the same buffer) and the wells in column 24 contained 10 μl of buffer alone.
Injections were performed as described above. […] In this case the dispersion coefficients were assumed to be identical and the compound concentration in each droplet was calculated by assuming a linear correlation between NIR fluorescence and compound concentration.

[3] = molecular target: T3, β-galactosidase (Escherichia coli, UniProt P00722); assay: Standard microplate assay (Example 1 comparison values); set-up: purchased Sigma-Aldrich Co; conditions: read-out: KM of RBG measured in a standard microplate assay
T3 sequence (P00722 2-1024 limits assumed): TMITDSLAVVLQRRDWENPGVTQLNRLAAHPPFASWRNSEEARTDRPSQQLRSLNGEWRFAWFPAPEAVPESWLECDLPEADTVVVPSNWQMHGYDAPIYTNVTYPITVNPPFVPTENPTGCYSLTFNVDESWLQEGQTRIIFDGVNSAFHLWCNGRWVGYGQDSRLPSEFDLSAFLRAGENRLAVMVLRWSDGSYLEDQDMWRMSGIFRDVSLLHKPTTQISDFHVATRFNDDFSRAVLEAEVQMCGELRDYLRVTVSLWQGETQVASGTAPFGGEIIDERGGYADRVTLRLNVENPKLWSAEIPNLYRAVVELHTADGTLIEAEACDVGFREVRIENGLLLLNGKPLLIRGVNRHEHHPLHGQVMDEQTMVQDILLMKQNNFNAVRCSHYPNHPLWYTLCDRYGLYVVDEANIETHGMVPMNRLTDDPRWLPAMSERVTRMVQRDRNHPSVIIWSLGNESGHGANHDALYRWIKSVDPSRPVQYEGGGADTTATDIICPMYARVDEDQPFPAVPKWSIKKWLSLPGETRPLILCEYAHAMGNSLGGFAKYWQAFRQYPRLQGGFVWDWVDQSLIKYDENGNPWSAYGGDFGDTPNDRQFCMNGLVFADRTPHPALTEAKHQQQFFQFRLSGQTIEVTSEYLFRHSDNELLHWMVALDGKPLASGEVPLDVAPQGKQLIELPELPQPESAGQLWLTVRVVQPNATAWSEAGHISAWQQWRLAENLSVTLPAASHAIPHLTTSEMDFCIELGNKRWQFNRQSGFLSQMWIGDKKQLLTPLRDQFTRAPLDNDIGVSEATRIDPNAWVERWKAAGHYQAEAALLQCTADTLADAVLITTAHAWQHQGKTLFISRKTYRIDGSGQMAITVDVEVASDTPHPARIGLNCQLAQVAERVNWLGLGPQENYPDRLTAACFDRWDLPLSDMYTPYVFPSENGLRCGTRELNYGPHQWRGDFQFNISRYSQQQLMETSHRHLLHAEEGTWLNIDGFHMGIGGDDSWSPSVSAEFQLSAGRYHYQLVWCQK

[4] = molecular target: T3, β-galactosidase; assay: Droplet microfluidic KM measurement, on-chip dilution system (Example 1e); set-up: purchased Sigma-Aldrich Co; conditions: 75 s droplet incubation, Michaelis-Menten fit, read-out: KM of RBG in the enzyme/substrate system
Description: In the examples, the model systems comprised an enzyme, a substrate, and an inhibitor for IC50 measurements and an enzyme and substrate alone for KM measurements. In all cases the enzyme was β-galactosidase (Sigma-Aldrich Co.), the substrate was resorufin β-D-galactopyranoside (RBG; Invitrogen Corporation), and the inhibitor was phenylethyl β-D-thiogalactopyranoside (PETG; Invitrogen Corporation).
An aqueous phase of 520 μM RBG (the substrate), 100 μM sodium fluorescein, and 5% (v/v) DMSO in PBS were injected into the ‘compound’ input of the microfluidic device (FIG. 4) at a flow rate of 111 μl/hr. A second aqueous phase, 5% (v/v) DMSO in PBS, was injected into the ‘diluent’ input at a flow rate of 389 μl/hr. […]
A series of microdroplets were created containing RBG (and sodium fluorescein) at different concentrations: from zero to 260 μM (50 μM sodium fluorescein) and then from 260 μM to zero. […] The amounts of fluorescent resorufin (liberated by β-galactosidase activity) and sodium fluorescein were measured for each droplet by monitoring fluorescence intensity in the 590-625 and 500-520 nm channels, respectively.
A Michaelis-Menten curve was fitted to the points using the DRC package in R (FIG. 8). […] This value compares favorably to the value measured in a standard microplate assay: 115.6 μM (95% confidence intervals: 102.7-128.6 μM).

Compound | confirmation of activity in microplate [1] | effect on PTP1B in high-resolution dose-response curves ([2]; droplets) | pIC50 ([2]; droplets, 4-parameter Hill fit) | inhibition ([2]; 50 μM droplets) | Km [3] | Km [4]
NC(=O)c1cc[n+](CC2=C(C(=O)[O-])N3C(=O)[C@@H](NC(=O)[C@@H](c4ccccc4)S(=O)(=O)[O-])[C@H]3SC2)cc1.[Na+] [sodium cefsulodine] | confirmed in microplate | strong inhibition of PTP1B | 4.48 | – | – | –
Cc1ccc(C(=O)Nc2ccc(S(=O)(=O)[O-])c3cc(S(=O)(=O)[O-])cc(S(=O)(=O)[O-])c23)cc1NC(=O)c1cccc(NC(=O)Nc2cccc(C(=O)Nc3cc(C(=O)Nc4ccc(S(=O)(=O)[O-])c5cc(S(=O)(=O)[O-])cc(S(=O)(=O)[O-])c45)ccc3C)c2)c1.[Na+].[Na+].[Na+].[Na+].[Na+].[Na+] [sodium suramin] | confirmed in microplate | activate PTP1B at low concentrations (<10 μM) and inhibit it at higher concentrations | – | 89.9% | – | –
Cn1cc[nH]c1=S [methimazole] | not confirmed in microplate | weak inhibitor | – | – | – | –
O=C(O)c1cc(-c2ccc(F)cc2F)ccc1O [diflunisal] | confirmed in microplate | weak activator | – | – | – | –
O=c1ccc2nc3ccc(O[C@@H]4O[C@H](CO)[C@H](O)[C@H](O)[C@H]4O)cc3oc-2c1 [RBG, resorufin β-D-galactopyranoside] | – | – | – | – | 116 µM | 446 µM
